Earlier results on 1 substance are cited in patent US20040132104A1, “Vitamin D assay” (priority 2003, published 2004).

This series deals with T1, Vitamin D binding protein (Homo sapiens, UniProt P02774).
T1 sequence (P02774 17-474): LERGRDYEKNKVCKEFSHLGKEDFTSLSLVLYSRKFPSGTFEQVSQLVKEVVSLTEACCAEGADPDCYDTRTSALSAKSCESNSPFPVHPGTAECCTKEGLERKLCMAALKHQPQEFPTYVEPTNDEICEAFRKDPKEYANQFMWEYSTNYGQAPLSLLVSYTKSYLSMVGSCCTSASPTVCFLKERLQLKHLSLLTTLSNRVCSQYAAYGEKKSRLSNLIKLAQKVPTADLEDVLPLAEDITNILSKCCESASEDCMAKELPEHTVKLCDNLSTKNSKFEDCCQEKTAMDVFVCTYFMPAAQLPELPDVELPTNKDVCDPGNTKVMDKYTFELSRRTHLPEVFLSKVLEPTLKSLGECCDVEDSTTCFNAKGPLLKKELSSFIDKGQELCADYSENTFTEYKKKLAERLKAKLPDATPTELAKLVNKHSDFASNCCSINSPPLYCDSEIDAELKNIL
Particulars: Vitamin D binding protein affinity for 25-OH Vitamin D.

On to 25-hydroxy-vitamin D [25-OH Vitamin D], for which the affinity is 5e+08 M⁻¹.
